# Measurements published in PubChem BioAssay AID1919006 (Molecular Pharmacology Branch, DTP, NCI, 2023).
# Several values for one entry are separate records, joined by “and”; a condition that tells them apart may be missing. Equal entries are not always repeated.
# System: 885512-296-R-J2-PDC complex spheroid growth, % test/control
# Assay: Anticancer human tumor 885512-296-R-J2-PDC patient-derived breast carcinoma cell line growth inhibition [AhR]
# Details: for viability, T/C: stronger effect = lower value
# Summary of the method: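 Agents were dosed in half-log steps down from roughly clinical Cmax, or from 10 microM where Cmax was unknown, alone and with AhR antagonists. Read-out: percent test/control growth of tumor spheroids containing HUVEC and MSC stromal cells.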
# [1] = curve of first compound, second compound 0.1 µM
# [2] = curve of first compound, second compound 0.316 µM
# [3] = curve of first compound, second compound 1 µM
# [4] = curve of first compound, second compound 3.16 µM
# [5] = curve of first compound, second compound 10 µM
# [6] = second compound 0.1 µM, first compound 0.0316 µM
# [7] = second compound 0.1 µM, first compound 0.1 µM
# [8] = second compound 0.1 µM, first compound 0.316 µM
# [9] = second compound 0.1 µM, first compound 1 µM
# [10] = second compound 0.1 µM, first compound 3.16 µM
# [11] = second compound 0.1 µM, first compound 10 µM
# [12] = second compound 0.316 µM, first compound 0.0316 µM
# [13] = second compound 0.316 µM, first compound 0.1 µM
# [14] = second compound 0.316 µM, first compound 0.316 µM
# [15] = second compound 0.316 µM, first compound 1 µM
# [16] = second compound 0.316 µM, first compound 3.16 µM
# [17] = second compound 0.316 µM, first compound 10 µM
# [18] = second compound 1 µM, first compound 0.0316 µM
# [19] = second compound 1 µM, first compound 0.1 µM
# [20] = second compound 1 µM, first compound 0.316 µM
# [21] = second compound 1 µM, first compound 1 µM
# [22] = second compound 1 µM, first compound 3.16 µM
# [23] = second compound 1 µM, first compound 10 µM
# [24] = second compound 3.16 µM, first compound 0.0316 µM
# [25] = second compound 3.16 µM, first compound 0.1 µM
# [26] = second compound 3.16 µM, first compound 0.316 µM
# [27] = second compound 3.16 µM, first compound 1 µM
# [28] = second compound 3.16 µM, first compound 3.16 µM
# [29] = second compound 3.16 µM, first compound 10 µM
# [30] = second compound 10 µM, first compound 0.0316 µM
# [31] = second compound 10 µM, first compound 0.1 µM
# [32] = second compound 10 µM, first compound 0.316 µM
# [33] = second compound 10 µM, first compound 1 µM
# [34] = second compound 10 µM, first compound 3.16 µM
# [35] = second compound 10 µM, first compound 10 µM
# 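Also: spheroids exposed to compounds for seven days.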
Compound,IC50 [1] [nM],IC50 [2] [nM],IC50 [3] [nM],IC50 [4] [nM],IC50 [5] [nM],"viability, T/C [6] [%]","viability, T/C [7] [%]","viability, T/C [8] [%]","viability, T/C [9] [%]","viability, T/C [12] [%]","viability, T/C [13] [%]","viability, T/C [14] [%]","viability, T/C [15] [%]","viability, T/C [18] [%]","viability, T/C [19] [%]","viability, T/C [20] [%]","viability, T/C [21] [%]","viability, T/C [24] [%]","viability, T/C [25] [%]","viability, T/C [26] [%]",other results
CC(C)c1c(-c2ccccc2)nc2c(C#N)c[nH]n2c1=O + Cc1cncc(-c2nc(NCCc3c[nH]c4ccccc34)c3ncn(C(C)C)c3n2)c1,> 10000,> 10000,> 10000,> 10000,< 31.6,108,108,101,109,104,108,105,93.3,94.5,95.4,83,83.2,62,59.7,56.2,"viability, T/C [10]: 97.1%; viability, T/C [11]: 86.6%; viability, T/C [16]: 102%; viability, T/C [17]: 89.3%; viability, T/C [22]: 80.8%; viability, T/C [23]: 81.8%; viability, T/C [27]: 62.1%; viability, T/C [28]: 60.5%; viability, T/C [29]: 52.3%; viability, T/C [30]: 17%; viability, T/C [31]: 18.7%; viability, T/C [32]: 17.9%; viability, T/C [33]: 14.5%; viability, T/C [34]: 17.9%; viability, T/C [35]: 17.9%"
Cc1ccccc1N=Nc1ccc(NC(=O)c2ccnn2C)c(C)c1,–,–,–,–,–,–,–,–,–,–,–,–,–,–,–,–,–,–,–,–,"viability, T/C (compound 10 µM): 53.1% [middle of 21 runs]"
CC1COCCN1c1cc(C2(S(C)(=N)=O)CC2)nc(-c2ccnc3[nH]ccc23)n1 (stereo not drawn) + CC(CO)NC(=O)c1cc(-c2ccc(Cl)cc2)nn(-c2cnn(C)c2)c1=O,1680,1800,1550,1140,671,102,96.4,87,76,95.1,102,94.2,84.4,100,97,99,70.3,89.4,83.5,82.8,"viability, T/C [10]: 19.1%; viability, T/C [11]: 5.46%; viability, T/C [16]: 17.1%; viability, T/C [17]: 4.07%; viability, T/C [22]: 16.7%; viability, T/C [23]: 5.36%; viability, T/C [27]: 55.1%; viability, T/C [28]: 11.1%; viability, T/C [29]: 4.04%; viability, T/C [30]: 96.9%; viability, T/C [31]: 95.3%; viability, T/C [32]: 72.6%; viability, T/C [33]: 38.3%; viability, T/C [34]: 11.3%; viability, T/C [35]: 4.98%"
Nc1ccccc1NC(=O)c1ccc(CNC(=O)OCc2cccnc2)cc1 + Cc1ccccc1N=Nc1ccc(NC(=O)c2ccnn2C)c(C)c1,763,764,958,713,< 31.6,95.5,89.5,64.3,43.7,92,77.7,68.8,43.1,97.7,91.5,69.5,48.7,75.2,69.7,62.3,"viability, T/C [10]: 28.3%; viability, T/C [11]: 11.1%; viability, T/C [16]: 26.5%; viability, T/C [17]: 10.7%; viability, T/C [22]: 29.2%; viability, T/C [23]: 11.2%; viability, T/C [27]: 44.3%; viability, T/C [28]: 27.7%; viability, T/C [29]: 12.4%; viability, T/C [30]: 49.4%; viability, T/C [31]: 45.1%; viability, T/C [32]: 44.5%; viability, T/C [33]: 32.5%; viability, T/C [34]: 23.5%; viability, T/C [35]: 12.8%"
Nc1ncn(C2CC(O)C(CO)O2)c(=O)n1 (stereo not drawn) + Cc1ccccc1N=Nc1ccc(NC(=O)c2ccnn2C)c(C)c1,949,816,840,930,> 1000,112,106,74.2,48.9,122,111,78.3,43.9,122,106,80,44.7,112,95.5,77.3,"viability, T/C (second compound 0.1 µM, first compound 0.00316 µM): 114%; viability, T/C (second compound 0.1 µM, first compound 0.01 µM): 128%; viability, T/C (second compound 0.316 µM, first compound 0.00316 µM): 109%; viability, T/C (second compound 0.316 µM, first compound 0.01 µM): 114%; viability, T/C (second compound 1 µM, first compound 0.00316 µM): 111%; viability, T/C (second compound 1 µM, first compound 0.01 µM): 108%; viability, T/C (second compound 3.16 µM, first compound 0.00316 µM): 88.8%; viability, T/C (second compound 3.16 µM, first compound 0.01 µM): 79.2%; viability, T/C [27]: 48.1%; viability, T/C (second compound 10 µM, first compound 0.00316 µM): 50.6%; viability, T/C (second compound 10 µM, first compound 0.01 µM): 58.4%; viability, T/C [30]: 62.8%; viability, T/C [31]: 67%; viability, T/C [32]: 60.1%; viability, T/C [33]: 48.3%"
Nc1ccccc1NC(=O)c1ccc(CNC(=O)OCc2cccnc2)cc1,–,–,–,–,–,–,–,–,–,–,–,–,–,–,–,–,–,–,–,–,"viability, T/C (compound 0.0316 µM): 79.7% and 97% and 82.8%; viability, T/C (compound 0.1 µM): 86.1% and 81.5% and 74.1%; viability, T/C (compound 0.316 µM): 67.5% and 63.9% and 58.3%; viability, T/C (compound 1 µM): 48.1% (2×) and 46.7%; viability, T/C (compound 3.16 µM): 25.6% and 24.4% and 32.2%; viability, T/C (compound 10 µM): 10.4% and 10.3% (2×); IC50 (curve of compound): 920 nM and 758 nM and 747 nM"
